# How the values were obtained:
# [1] = test system: absolute lymphocyte counts; details: healthy volunteers; multiple dose applications for 28 days; cited from earlier work
# [2] = test system: CAR-T cells; experiment: CAR-T cell activation markers by flow cytometry in leukemia mice (Example 1); assay type: in vivo, mouse (C57BL/6J); details: KRP203 administered from day −1
# Source text: 6 to 8-week-old C57BL/6J male mice were obtained from Envigo. Ubi-GFP RAG1−/−OT-I TCR mice were bred and crossed in our animal facility under specific pathogen-free conditions. All experiments were approved by Institut Pasteur's Safety Committee in accordance with French and European guidelines (CETEA 2017-0038). Immortalized pro-B cells were generated by infecting bone marrow cells with a retrovirus encoding viral-Abelson kinase (v-abl). This tumor cell line was then retrovirally transduced to express a fluorescence resonance energy transfer (FRET)-based reporter for caspase 3 activity. Mice were examined every day and sacrificed in case of prostration, tousled hair, weakness or nodal tumor mass >1 cm. Cells were cultured in RPMI medium 1640-GlutaMAX™ supplemented with 10% heat-inactivated fetal bovine serum, 50 U·mL-1 penicillin, 50 μg·mL-1 streptomycin, 1 mM sodium pyruvate, 10 mM HEPES and 50 μM 2-mercaptoethanol, and maintained at 37° C. and 5% CO2. Cells were routinely tested for the absence of Mycoplasma contamination (Venor-GeM Advance mycoplasma detection kit, Minerva Biolabs). […]
# For ex vivo analysis, bone marrow cells were isolated by flushing femurs and tibias from tumor-bearing mice and subsequent filtering through 70 μm cell strainers. […] Analyses were performed using a Cytoflex LX (Beckman Coulter) flow cytometer and analyzed with FlowJo v10.8.0 (BD). […]
# [3] = test system: CAR-T cells; experiment: Absolute numbers of CAR-T cells in blood (Example 3); assay type: in vivo, mouse (NCG); details: mocravimod with CAR-T cells
# Experimental: (§1) To determine the kinetics of cytokine secretion and to evaluate the effectiveness of mocravimod in reducing the level of circulating cytokines when administered in combination with CAR T cells, NOD CRISPR Prkdc 112r Gamma (NCG) mice were injected i.v. with 5×10^6 JEKO-1-luc-GFP tumor cells. Treatment with either mocravimod or vehicle started on day 6 after tumor cell engraftment. Mocravimod (3 mg/kg) was administered every second day. 0.75×10^6 CAR T cells were injected i.v. on day 7 after tumor cell engraftment. Mice were bled 24 h, 48 h, 72 h, 96 h and 120 h post CAR T cell injection and plasma was collected. Interferon-g (IFN-g), Tumor necrosis factor-a (TNF-α) and Interleukin-2 (IL-2) were analyzed in plasma samples using the BD CBA Human Th1/Th2/Th17 cytokine assay. CAR T cells were phenotyped and enumerated in blood.
# The same protocol as example 1 has been conducted for the method of analyzing CAR-T cells in bone marrow and the same protocol as the cytokine assay has been conducted for the method of analyzing CAR-T cells in blood.
# [4] = test system: IFN-g, TNF-α and IL-2; experiment: Kinetics of plasma cytokines (BD CBA Human Th1/Th2/Th17) in JEKO-1 bearing NCG mice given CAR T cells (Example 3); assay type: in vivo, mouse (NCG); details: 5 days after CAR-T cells; mocravimod 3 mg/kg every second day from day 6
# Experimental: as §1
Structure (SMILES),Recovery of absolute lymphocyte counts to 80% of normal counts reached after [1] [days],"percentage of activation of CAR-T cells in lymph nodes, increase in comparison to the control [2]",absolute number of CAR-T cells in blood ([3]; day 1 after CAR-T injection),absolute number of CAR-T cells in blood ([3]; day 3 after CAR-T injection),absolute number of CAR-T cells in blood ([3]; day 5 after CAR-T injection),level of IFN-g in blood (plasma) [4],level of IL-2 in blood (plasma) [4],level of TNFa in blood (plasma) [4]
CCc1cc(/C(C)=N/OCc2ccc(C3CCCCC3)c(C(F)(F)F)c2)ccc1CN1CC(C(=O)O)C1 [BAF312],7,–,–,–,–,–,–,–
"NC(CO)(CO)CCc1ccc(Sc2cccc(OCc3ccccc3)c2)cc1Cl [mocravimod, 2-amino-2-[4-(3-benzyloxyphenylthio)-2-chlorophenyl]ethyl-propane-1,3-diol]",–,2-3 times,around 500,around 500,around 100,around 100 μg/mL,around 2 μg/mL,around 0 μg/mL
